ChEMBL document CHEMBL4387753 (Bioorg Med Chem, 2019)
≈ marks a conversion by molar mass, not a printed value. Calls of active or inactive are those of the source. No cut-off for these calls is given here.

What was measured:
Bacillus pumilus [1] = assay: Antibacterial activity against Bacillus pumilus CMCC63202 incubated for 24 hrs by CLSI protocol based broth microdilution method; type: functional; settings: CMCC63202, 24 h
Staphylococcus aureus [2] = assay: Bactericidal activity against Staphylococcus aureus ATCC 43300 assessed as 3 log reduction in number of colony forming units incubated for 24 hrs followed by aliquots transfer to tryptic soy agar and grown for 24 hrs; type: functional; settings: ATCC 43300, 24 h
[3] = Half life in mouse plasma at 25 ug/ml incubated for 24 hrs by RP-HPLC analysis; type: ADME, cell-free
[4] = target: T1, Cell division protein FtsZ (Bacillus subtilis (strain 168)) (UniProt P17865); assay: Induction of Bacillus subtilis FtsZ polymerization in presence of GTP measured over 30 mins by microtiter plate-based light-scattering assay
T1 sequence (whole entry): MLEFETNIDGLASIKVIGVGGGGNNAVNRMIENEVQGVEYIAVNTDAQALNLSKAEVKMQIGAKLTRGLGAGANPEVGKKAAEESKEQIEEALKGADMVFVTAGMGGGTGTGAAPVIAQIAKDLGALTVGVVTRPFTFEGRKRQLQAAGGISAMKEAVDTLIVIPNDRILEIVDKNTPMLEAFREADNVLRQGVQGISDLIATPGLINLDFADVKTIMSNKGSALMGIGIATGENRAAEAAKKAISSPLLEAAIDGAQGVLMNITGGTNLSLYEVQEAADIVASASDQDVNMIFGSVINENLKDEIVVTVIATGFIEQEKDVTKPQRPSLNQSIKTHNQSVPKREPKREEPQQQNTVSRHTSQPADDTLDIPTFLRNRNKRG

Pseudomonas aeruginosa = assay: Antibacterial activity against Pseudomonas aeruginosa ATCC 27853 incubated for 24 hrs by CLSI protocol based broth microdilution method; type: functional; settings: ATCC 27853, 24 h
[5] = Stability in mouse plasma assessed as degradation of compound at 25 ug/ml incubated for 24 hrs by RP-HPLC analysis; type: ADME, cell-free
HeLa = assay: Growth inhibition of human HeLa cells incubated for 48 hrs by MTT assay; type: cell-based
Staphylococcus aureus [6] = assay: Antibacterial activity against Staphylococcus aureus clinical isolate incubated for 24 hrs by CLSI protocol based broth microdilution method; type: functional
Staphylococcus aureus [7] = assay: Antibacterial activity against Staphylococcus aureus ATCC 25923 incubated for 24 hrs by CLSI protocol based broth microdilution method; type: functional; settings: ATCC 25923, 24 h
Staphylococcus aureus [8] = assay: Bactericidal activity against Staphylococcus aureus ATCC 25923 assessed as 3 log reduction in number of colony forming units incubated for 24 hrs followed by aliquots transfer to tryptic soy agar and grown for 24 hrs; type: functional; settings: ATCC 25923, 24 h
Bacillus subtilis = assay: Antibacterial activity against Bacillus subtilis ATCC 9372 incubated for 24 hrs by CLSI protocol based broth microdilution method; type: functional; settings: ATCC 9372, 24 h
Staphylococcus aureus [9] = assay: Antibacterial activity against penicillin-resistant Staphylococcus aureus clinical isolate incubated for 24 hrs by CLSI protocol based broth microdilution method; type: functional
Staphylococcus aureus [10] = assay: Bactericidal activity against penicillin-resistant Staphylococcus aureus clinical isolate assessed as 3 log reduction in number of colony forming units incubated for 24 hrs followed by aliquots transfer to tryptic soy agar and grown for 24 hrs; type: functional
[11] = Clearance in mouse liver microsomes incubated for 20 mins in presence of NADPH by RP-HPLC analysis; type: ADME, Microsome
Staphylococcus aureus [12] = assay: Antibacterial activity against methicillin-resistant Staphylococcus aureus ATCC 43300 incubated for 24 hrs by CLSI protocol based broth microdilution method; type: functional; settings: ATCC 43300, 24 h
[13] = Half life in mouse liver microsomes in presence of NADPH by RP-HPLC analysis; type: ADME, Microsome
Escherichia coli = assay: Antibacterial activity against Escherichia coli ATCC 25922 incubated for 24 hrs by CLSI protocol based broth microdilution method; type: functional; settings: ATCC 25922, 24 h
Staphylococcus aureus [14] = assay: Bactericidal activity against methicillin-resistant Staphylococcus aureus ATCC 43300 assessed as log reduction in viable bacterial count at 1 to 8 times MIC incubated for 24 hrs by time-kill curve assay; type: functional
Bacillus pumilus [15] = assay: Effect on bacterial cell morphology in Bacillus pumilus CMCC63202 assessed as increase in bacterial cell length at 0.5 times MIC incubated for 18 hrs by phase-contrast optical microscopic analysis; type: functional, organism-based
Staphylococcus aureus [16] = assay: Ratio of MBC for Staphylococcus aureus ATCC 25923 to MIC for Staphylococcus aureus ATCC 25923; type: functional
[17] = target: T1, Cell division protein FtsZ (Bacillus subtilis (strain 168)); assay: Induction of Bacillus subtilis FtsZ polymerization in presence of GTP at 5 ug/ml measured over 30 mins by microtiter plate-based light-scattering assay
Staphylococcus aureus [18] = assay: Bactericidal activity against methicillin-resistant Staphylococcus aureus ATCC 43300 assessed as log reduction in viable bacterial count at 4 ug/ml incubated for 24 hrs by time-kill curve assay; type: functional
Staphylococcus aureus [19] = assay: Bactericidal activity against methicillin-resistant Staphylococcus aureus ATCC 43300 assessed as log reduction in viable bacterial count at 2 ug/ml incubated for 24 hrs by time-kill curve assay; type: functional

Row | Compound | MIC (Bacillus pumilus [1]) [µg/mL] | MBC (Staphylococcus aureus [2]) [µg/mL] | MIC (Pseudomonas aeruginosa) [µg/mL] | MIC (Staphylococcus aureus [6]) [µg/mL] | MIC (Staphylococcus aureus [7]) [µg/mL] | MBC (Staphylococcus aureus [8]) [µg/mL] | MIC (Bacillus subtilis) [µg/mL] | MIC (Staphylococcus aureus [9]) [µg/mL] | MBC (Staphylococcus aureus [10]) [µg/mL] | MIC (Staphylococcus aureus [12]) [µg/mL] | MIC (Escherichia coli) [µg/mL] | Activity [17] | also measured
1 | NC(=O)c1c(F)ccc(OCc2nn(-c3ccc(Br)cc3)c(=O)o2)c1F | 1 (≈ 2.35 µM) | 1 (≈ 2.35 µM) | > 64 | 0.5 (≈ 1.17 µM) | 1 (≈ 2.35 µM) | 1 (≈ 2.35 µM) | 0.125 (≈ 0.293 µM) | 1 (≈ 2.35 µM) | 1 (≈ 2.35 µM) | 1 (≈ 2.35 µM) | > 64 |  | half-life at 25 ug/ml [3]: 2.5 h; Activity [4]: Dose-dependent effect; Stability [5]: Unstable; IC50 (HeLa): > 64 µg/mL; CLH [11]: 24.3%; half-life [13]: > 1.5 h; Activity (Staphylococcus aureus [14]): 4 log10CFU/ml; Activity (Bacillus pumilus [15]): Active; Ratio (Staphylococcus aureus [16]): 1
2 | NC(=O)c1c(F)ccc(OCC2=NN(c3ccc(Br)cc3)C(=O)C2)c1F | > 64 |  | > 64 |  | > 64 |  | > 64 | > 64 |  | > 64 | > 64 | inactive | 
3 | CC(=O)NC[C@H]1CN(c2ccc(N3CCOCC3)c(F)c2)C(=O)O1 [LINEZOLID] | 2 (≈ 5.93 µM) | > 64 | > 64 | 1 (≈ 2.96 µM) |  | > 64 | 0.5 (≈ 1.48 µM) |  | > 64 |  | > 64 | inactive | Activity (Staphylococcus aureus [18]): 1 log10CFU/ml
4 | NC(=O)c1c(F)ccc(OCc2nc3cc(Cl)cnc3s2)c1F | 0.5 (≈ 1.41 µM) | 1 (≈ 2.81 µM) | > 64 | 0.5 (≈ 1.41 µM) | 1 (≈ 2.81 µM) | 1 (≈ 2.81 µM) | 0.5 (≈ 1.41 µM) | 1 (≈ 2.81 µM) | 1 (≈ 2.81 µM) | 1 (≈ 2.81 µM) | > 64 |  | Activity (Staphylococcus aureus [19]): 4 log10CFU/ml; Ratio (Staphylococcus aureus [16]): 1
5 | CN[C@H](CC(C)C)C(=O)N[C@H]1C(=O)N[C@@H](CC(N)=O)C(=O)N[C@H]2C(=O)N[C@H]3C(=O)N[C@H](C(=O)N[C@H](C(=O)O)c4cc(O)cc(O)c4-c4cc3ccc4O)[C@H](O)c3ccc(c(Cl)c3)Oc3cc2cc(c3O[C@@H]2O[C@H](CO)[C@@H](O)[C@H](O)[C@H]2O[C@H]2C[C@](C)(N)[C@H](O)[C@H](C)O2)Oc2ccc(cc2Cl)[C@H]1O [VANCOMYCIN] |  | 1 (≈ 0.69 µM) |  |  |  | 2 (≈ 1.38 µM) |  |  | 1 (≈ 0.69 µM) |  |  |  | Activity (Staphylococcus aureus [19]): 4 log10CFU/ml
6 | NC(=O)c1c(F)ccc(OCc2nn(-c3ccc(Br)cc3)c(=O)[nH]2)c1F | > 64 |  | > 64 |  | > 64 |  | > 64 | > 64 |  | > 64 | > 64 | inactive | Stability [5]: Stable; CLH [11]: 24.3%; half-life [13]: > 1.5 h
7 | N#Cc1ccc(-n2nc(COc3ccc(F)c(C(N)=O)c3F)oc2=O)cc1 | 4 (≈ 10.7 µM) |  | > 64 | 16 (≈ 43 µM) | 4 (≈ 10.7 µM) |  | 2 (≈ 5.37 µM) | 8 (≈ 21.5 µM) |  | 4 (≈ 10.7 µM) | > 64 |  | 
8 | CCn1c(COc2ccc(F)c(C(N)=O)c2F)nn(-c2ccc(Br)cc2)c1=O | > 64 |  | > 64 |  | > 64 |  | > 64 | > 64 |  | > 64 | > 64 | inactive | 
9 | NC(=O)c1c(F)ccc(OCc2nn(Cc3ccc(Br)cc3)c(=O)o2)c1F | 32 (≈ 72.7 µM) |  | > 64 | 64 (≈ 145 µM) | > 64 |  | 8 (≈ 18.2 µM) | > 64 |  | 64 (≈ 145 µM) | > 64 |  | 
10 | CCc1ccc(-n2nc(COc3ccc(F)c(C(N)=O)c3F)oc2=O)cc1 | 4 (≈ 10.7 µM) |  | > 64 | 2 (≈ 5.33 µM) | 2 (≈ 5.33 µM) |  | 0.5 (≈ 1.33 µM) | 4 (≈ 10.7 µM) |  | 2 (≈ 5.33 µM) | > 64 |  | 
11 | COc1ccc(-n2nc(COc3ccc(F)c(C(N)=O)c3F)oc2=O)cc1 | 8 (≈ 21.2 µM) |  | > 64 | 4 (≈ 10.6 µM) | 2 (≈ 5.3 µM) |  | 1 (≈ 2.65 µM) | 4 (≈ 10.6 µM) |  | 4 (≈ 10.6 µM) | > 64 |  | 
12 | NC(=O)c1c(F)ccc(OCn2nc(-c3ccc(Cl)cc3)oc2=O)c1F | > 64 |  | > 64 | > 64 | > 64 |  | > 64 | > 64 |  | > 64 | > 64 | inactive | 
